{
  "source": "patent US11752156B2",
  "about": "“Compositions and methods for treating hyperproliferative skin disorders” (Athenex HK Innovative Limited, priority 2018, dated 2023)",
  "key": {"[1]": {"system": "A431 cells (epidermoid cells obtained from a human squamous cell carcinoma)", "test": "inhibition of cell growth by tazarotene, A431", "format": "cell-based", "text": "FIG. 8: Inhibition of A431 cell growth by tazarotenee, as determined by staining.\n(§1) Examples of suitable retinoids include retinol, retinal, retinoic acid isotretinoin, alitreninoin, etretinate, acitretin, adapalene, bexarotene, and/or tazarotene. FIGS. 7 and 8 show the effects of tazarotene on growth of cells in culture, including CCD-1106 KERTr keratinocytes (FIG. 7) and A431 cells (epidermoid cells obtained from a human squamous cell carcinoma, FIG. 8)."}, "[2]": {"system": "cell proliferation/growth", "test": "combined treatment with KX01 and tazarotene, inhibition of cell proliferation/growth", "format": "cell-based", "text": "as §1"}, "[3]": {"system": "CCD-1106 KERTr keratinocytes", "test": "inhibition of cell growth by tazarotene, keratinocytes", "format": "cell-based, human", "text": "FIG. 7: Inhibition of CCD1106 KERTr keratinocyte growth by tazarotene, as determined by staining.\nas §1"}},
  "data": [
    {"smiles": "CCOC(=O)c1ccc(C#Cc2ccc3c(c2)C(C)(C)CCS3)nc1", "note": "[Tazarotene, tazarotene]", "values": [
      {"measurement": "Maximum inhibition", "setting": "[1]; A431, model estimate", "result": 1.09},
      {"measurement": "H", "setting": "[1]; A431, steepness of slope", "result": 1.66},
      {"measurement": "IC50", "setting": "[1]; Homo sapiens, A-431, A431, model estimate", "result": 36.3, "unit": "µM"},
      {"measurement": "H", "setting": "[2]", "result": 1.0},
      {"measurement": "Imax", "setting": "[2]", "result": 1.1},
      {"measurement": "IC50", "setting": "[2]; column head says nM", "result": 13300, "unit": "nM"},
      {"measurement": "IC50", "setting": "[3]; Homo sapiens, CCD-1106, model estimate", "result": 12.4, "unit": "µM"},
      {"measurement": "Maximum inhibition", "setting": "[3]; model estimate", "result": 0.903},
      {"measurement": "H", "setting": "[3]; steepness of slope", "result": 2.11}
    ]}
  ]
}
